According to patent US10954269B2, “Anti-inflammatory tripeptides” (Dr. August Wolff Gmbh & Co. KG Arzneimittel, priority 2013, dated 2021):

Assays:
Details in all cases: substance 10^−9M
[1] = tested on: human keratinocyte cell line (HaCaT); experiment: Cytokine secretion on protein level in activated human keratinocyte cell line HaCaT (13-plex FACS / Luminex, supernatant); assay type: cell-based
How it was run: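 First, T-cells are isolated from healthy donors' blood. Next, they and HaCaT keratinocytes are activated for 48 h with PMA/Ionomycin or IFN-γ in the presence of tripeptides. Finally, secreted cytokines are quantified in supernatants by 13-plex FACS at 48 and 72 h.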

primary murine T-cells = experiment: Cytokine secretion on protein level in activated primary murine T-cells (13-plex FACS / Luminex, supernatant); assay type: cell-based, C57BL/6 mice
How it was run: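 T-cells from secondary lymphatic organs of naïve C57BL/6 mice, stimulated with PMA/Ionomycin or IFN-γ; supernatant cytokines measured by 13-plex FACS 48 h and 72 h after stimulation. In another run, PMA/Ionomycin-stimulated cells received compounds at 10^−7, 10^−9 and 10^−11 M, with IFN-γ, IL-17 and IL-10 measured by Luminex.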

primary human T-cells = experiment: Cytokine secretion on protein level in activated primary human T-cells (13-plex FACS / Luminex, supernatant); assay type: cell-based
How it was run: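 Primary T-cells from peripheral blood of healthy volunteers, or HaCaT cells, were activated with PMA/Ionomycin or IFN-γ for 48 h and treated with tripeptides. Supernatants were collected 48 h and 72 h after stimulation and cytokines (IL-1, IL-2, IL-6, IL-12p70, IL-17, IFN-γ, TNF-α) were measured by 13-plex FACS.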

[2] = HaCaT stimulated with PMA/Ionomycin
[3] = primary murine T-cells stimulated with IFN-γ
[4] = primary murine T-cells stimulated with PBS
[5] = primary murine T-cells stimulated with PMA/Ionomycin
[6] = primary human T-cells stimulated with IFN-γ
[7] = primary human T-cells stimulated with PBS
[8] = primary human T-cells stimulated with PMA/Ionomycin

Substance H-(L)-Lys-(L)-Pro-Alb-NH2 [Example 10] has an IL-1 cytokine concentration ([1]; HaCaT stimulated with IFN-γ) of 0 pg/mL, an IL-2 cytokine concentration ([1]; HaCaT stimulated with IFN-γ) of 0 pg/mL and an IL-4 cytokine concentration ([1]; HaCaT stimulated with IFN-γ) of 183.12 pg/mL. The IL-5 cytokine concentration ([1]; HaCaT stimulated with IFN-γ) was 88.64 pg/mL, the IL-6 cytokine concentration ([1]; HaCaT stimulated with IFN-γ) was 346.73 pg/mL and the IL-9 cytokine concentration ([1]; HaCaT stimulated with IFN-γ) was 0 pg/mL. The IL-10 cytokine concentration ([1]; HaCaT stimulated with IFN-γ) was 0 pg/mL, the IL-12p70 cytokine concentration ([1]; HaCaT stimulated with IFN-γ) was 0 pg/mL and the IL-13 cytokine concentration ([1]; HaCaT stimulated with IFN-γ) was 1904.09 pg/mL. For the same substance, the IL-17 cytokine concentration ([1]; HaCaT stimulated with IFN-γ) was 189.1 pg/mL, the IL-22 cytokine concentration ([1]; HaCaT stimulated with IFN-γ) was 0 pg/mL and the TNF-α cytokine concentration ([1]; HaCaT stimulated with IFN-γ) was 0 pg/mL. It also gave an IFN-γ cytokine concentration ([1]; HaCaT stimulated with PBS) of 469.17 pg/mL, an IL-1 cytokine concentration ([1]; HaCaT stimulated with PBS) of 170.16 pg/mL and an IL-2 cytokine concentration ([1]; HaCaT stimulated with PBS) of 0 pg/mL. The IL-4 cytokine concentration ([1]; HaCaT stimulated with PBS) was 218.04 pg/mL, the IL-5 cytokine concentration ([1]; HaCaT stimulated with PBS) was 0 pg/mL and the IL-6 cytokine concentration ([1]; HaCaT stimulated with PBS) was 125.38 pg/mL. The IL-9 cytokine concentration ([1]; HaCaT stimulated with PBS) was 5.28 pg/mL, the IL-10 cytokine concentration ([1]; HaCaT stimulated with PBS) was 0 pg/mL and the IL-12p70 cytokine concentration ([1]; HaCaT stimulated with PBS) was 0 pg/mL. The IL-13 cytokine concentration ([1]; HaCaT stimulated with PBS) was 1864.02 pg/mL, the IL-17 cytokine concentration ([1]; HaCaT stimulated with PBS) was 230.84 pg/mL and the IL-22 cytokine concentration ([1]; HaCaT stimulated with PBS) was 0 pg/mL. It also gave a TNF-α cytokine concentration ([1]; HaCaT stimulated with PBS) of 0 pg/mL, an IFN-γ cytokine concentration [1, 2] of 327.78 pg/mL and an IL-1 cytokine concentration [1, 2] of 251.13 pg/mL. For the same substance, the IL-2 cytokine concentration [1, 2] was 189.17 pg/mL, the IL-4 cytokine concentration [1, 2] was 0 pg/mL and the IL-5 cytokine concentration [1, 2] was 0 pg/mL. It also gave an IL-6 cytokine concentration [1, 2] of 315.82 pg/mL, an IL-9 cytokine concentration [1, 2] of 14.67 pg/mL and an IL-10 cytokine concentration [1, 2] of 34.84 pg/mL. For the same substance, the IL-12p70 cytokine concentration [1, 2] was 0 pg/mL, the IL-13 cytokine concentration [1, 2] was 0 pg/mL and the IL-17 cytokine concentration [1, 2] was 45.41 pg/mL. It also gave an IL-22 cytokine concentration [1, 2] of 0 pg/mL, a TNF-α cytokine concentration [1, 2] of 53.51 pg/mL and an IL-1 cytokine concentration (primary murine T-cells; [3]) of 77.81 pg/mL. For the same substance, the IL-2 cytokine concentration (primary murine T-cells; [3]) was 93.19 pg/mL, the IL-4 cytokine concentration (primary murine T-cells; [3]) was 81.11 pg/mL and the IL-5 cytokine concentration (primary murine T-cells; [3]) was 238.38 pg/mL. It also gave an IL-6 cytokine concentration (primary murine T-cells; [3]) of 139.83 pg/mL, an IL-10 cytokine concentration (primary murine T-cells; [3]) of 2024.06 pg/mL and an IL-13 cytokine concentration (primary murine T-cells; [3]) of 0 pg/mL. It also gave an IL-17 cytokine concentration (primary murine T-cells; [3]) of 0 pg/mL, an IL-21 cytokine concentration (primary murine T-cells; [3]) of 0 pg/mL and an IL-22 cytokine concentration (primary murine T-cells; [3]) of 57.35 pg/mL. For the same substance, the IL-27 cytokine concentration (primary murine T-cells; [3]) was 1.29 pg/mL, the TNF-α cytokine concentration (primary murine T-cells; [3]) was 32.42 pg/mL and the IFN-γ cytokine concentration (primary murine T-cells; [4]) was 0 pg/mL. It also gave an IL-1 cytokine concentration (primary murine T-cells; [4]) of 66.84 pg/mL, an IL-2 cytokine concentration (primary murine T-cells; [4]) of 132.67 pg/mL and an IL-4 cytokine concentration (primary murine T-cells; [4]) of 65.63 pg/mL. It also gave an IL-5 cytokine concentration (primary murine T-cells; [4]) of 229.8 pg/mL, an IL-6 cytokine concentration (primary murine T-cells; [4]) of 177.95 pg/mL and an IL-10 cytokine concentration (primary murine T-cells; [4]) of 923.65 pg/mL. For the same substance, the IL-13 cytokine concentration (primary murine T-cells; [4]) was 0 pg/mL, the IL-17 cytokine concentration (primary murine T-cells; [4]) was 0 pg/mL and the IL-21 cytokine concentration (primary murine T-cells; [4]) was 0 pg/mL. It also gave an IL-22 cytokine concentration (primary murine T-cells; [4]) of 71.47 pg/mL, an IL-27 cytokine concentration (primary murine T-cells; [4]) of 0 pg/mL and a TNF-α cytokine concentration (primary murine T-cells; [4]) of 77.08 pg/mL. For the same substance, the IFN-γ cytokine concentration (primary murine T-cells; [5]) was 2377.98 pg/mL, the IL-1 cytokine concentration (primary murine T-cells; [5]) was 173.61 pg/mL and the IL-2 cytokine concentration (primary murine T-cells; [5]) was 179.75 pg/mL. The IL-4 cytokine concentration (primary murine T-cells; [5]) was 56.84 pg/mL, the IL-5 cytokine concentration (primary murine T-cells; [5]) was 267.52 pg/mL and the IL-6 cytokine concentration (primary murine T-cells; [5]) was 164.16 pg/mL. For the same substance, the IL-10 cytokine concentration (primary murine T-cells; [5]) was 1182.68 pg/mL, the IL-13 cytokine concentration (primary murine T-cells; [5]) was 0 pg/mL and the IL-17 cytokine concentration (primary murine T-cells; [5]) was 86.12 pg/mL. The IL-21 cytokine concentration (primary murine T-cells; [5]) was 0 pg/mL, the IL-22 cytokine concentration (primary murine T-cells; [5]) was 44.47 pg/mL and the IL-27 cytokine concentration (primary murine T-cells; [5]) was 8.48 pg/mL. The TNF-α cytokine concentration (primary murine T-cells; [5]) was 33.37 pg/mL, the IL-1 cytokine concentration (primary human T-cells; [6]) was 139.49 pg/mL and the IL-2 cytokine concentration (primary human T-cells; [6]) was 231.83 pg/mL. The IL-4 cytokine concentration (primary human T-cells; [6]) was 160.97 pg/mL, the IL-5 cytokine concentration (primary human T-cells; [6]) was 0 pg/mL and the IL-6 cytokine concentration (primary human T-cells; [6]) was 105.21 pg/mL. For the same substance, the IL-9 cytokine concentration (primary human T-cells; [6]) was 0 pg/mL, the IL-10 cytokine concentration (primary human T-cells; [6]) was 0 pg/mL and the IL-12p70 cytokine concentration (primary human T-cells; [6]) was 0 pg/mL. The IL-13 cytokine concentration (primary human T-cells; [6]) was 162.81 pg/mL, the IL-17 cytokine concentration (primary human T-cells; [6]) was 250.1 pg/mL and the IL-22 cytokine concentration (primary human T-cells; [6]) was 0 pg/mL. For the same substance, the TNF-α cytokine concentration (primary human T-cells; [6]) was 0 pg/mL, the IL-1 cytokine concentration (primary human T-cells; [7]) was 0 pg/mL and the IL-2 cytokine concentration (primary human T-cells; [7]) was 0 pg/mL. The IL-4 cytokine concentration (primary human T-cells; [7]) was 0 pg/mL, the IL-5 cytokine concentration (primary human T-cells; [7]) was 0 pg/mL and the IL-6 cytokine concentration (primary human T-cells; [7]) was 216.7 pg/mL. For the same substance, the IL-9 cytokine concentration (primary human T-cells; [7]) was 23.18 pg/mL, the IL-10 cytokine concentration (primary human T-cells; [7]) was 48.86 pg/mL and the IL-12p70 cytokine concentration (primary human T-cells; [7]) was 0 pg/mL. It also gave an IL-13 cytokine concentration (primary human T-cells; [7]) of 0 pg/mL, an IL-17 cytokine concentration (primary human T-cells; [7]) of 0 pg/mL and an IL-22 cytokine concentration (primary human T-cells; [7]) of 0 pg/mL. For the same substance, the INF-α cytokine concentration (primary human T-cells; [7]) was 0 pg/mL, the TNF-α cytokine concentration (primary human T-cells; [7]) was 21.65 pg/mL and the IL-1 cytokine concentration (primary human T-cells; [8]) was 878.53 pg/mL. For the same substance, the IL-2 cytokine concentration (primary human T-cells; [8]) was 5107.74 pg/mL, the IL-4 cytokine concentration (primary human T-cells; [8]) was 179.62 pg/mL and the IL-5 cytokine concentration (primary human T-cells; [8]) was 416.25 pg/mL. For the same substance, the IL-6 cytokine concentration (primary human T-cells; [8]) was 1255.58 pg/mL, the IL-9 cytokine concentration (primary human T-cells; [8]) was 461.98 pg/mL and the IL-10 cytokine concentration (primary human T-cells; [8]) was 729.43 pg/mL. For the same substance, the IL-12p70 cytokine concentration (primary human T-cells; [8]) was 0 pg/mL, the IL-13 cytokine concentration (primary human T-cells; [8]) was 1183.46 pg/mL and the IL-17 cytokine concentration (primary human T-cells; [8]) was 2234.39 pg/mL. The IL-22 cytokine concentration (primary human T-cells; [8]) was 0 pg/mL, the INF-α cytokine concentration (primary human T-cells; [8]) was 11538.53 pg/mL and the TNF-α cytokine concentration (primary human T-cells; [8]) was 4132.03 pg/mL.
